# Results reported in patent publication US7427408B2, “Quorum sensing and biofilm formation” (priority 2002, dated 2008).
# Tests used:
# [1] = test system: S. mutans biofilms (wildtype and luxS mutant); assay: Treatment of in vitro biofilm with SDS (detergent resistance); format: cell-based, Streptococcus mutans; conditions: 1% SDS, shaken at 150 rpm for one hour
# Description: Three samples of wildtype and mutant biofilms grown on glass coverslips were shaken at 150 rpm for one hour. The OD600 of the resulting supernatants were compared.
# (§1) Biofilms of S. mutans were grown as follows. Individual sterile culture dishes were filled with 2.5 mL of brain heart infusion broth supplemented with 1% (w/v) sucrose. Next, a sterile 18 mm glass microscope cover slip was added to each dish and the culture dish was covered. Each sample was then inoculated with a defined volume of overnight culture. The dishes were incubated anaerobically at 37° C. overnight.
# Biofilms were grown overnight using previously described conditions. For treatment with SDS, cover-slips were removed from overnight incubation and rinsed briefly. These were then placed into a fresh culture dish and 2mL of sterile, 1% (w/v) SDS solution was added to each dish. The biofilms were placed on a standard shaker set at 150 rpm for one hour at room temperature. […] These samples were measured for their OD600 values. […]
# (§2) As biofilms are known to be very resistant to detergents and biocides, we were also interested to determine if this property was influenced by the luxS mutation. […] These supernatants were then checked by microscopy to ensure that cells were not clumped, and subsequently, measured for the OD600. […]
# [2] = test system: V. harveyi BB170 (AI-2 reporter strain); assay: AI-2 luminescence reporter assay of S. mutans conditioned media; format: cell-based, Vibrio harveyi; conditions: S. mutans incubated 3 hours in AB media with sucrose at 1% final concentration
# Description: S. mutans was grown and assayed as described in Materials and Methods. Cells were grown overnight and resuspended to an OD600 of 0.4 in reporter assay (AB) media and incubated with aeration for 3 hours at 37° C. One sample was incubated in AB alone, while the other had sucrose added to a final concentration of 1%.
# The AI-2 luminescence reporter assay was performed essentially as described (38), with the following modifications. To obtain cell free conditioned media, S. mutans was grown overnight as described. Stationary phase cells were resuspended in AB media to an OD600 of 0.4. Cells were then incubated at 37° C. with aeration for 3 hrs. […]
# To determine luminescence, an overnight culture of V. harveyi BB170 was diluted 1:1000 into fresh AB medium and 180 μL of cells was added to each 1.5 mL microfuge tube. […]
# To determine levels of background luminescence, a sample containing 200 μL of 1:1000 diluted V. harveyi was also included. […] All samples were measured hourly until peak induction at the 3 hr time point. Measurements were collected using a TD 20/20 luminometer and expressed as arbitrary luminescence units.
# Since S. mutans is an acidogenic bacterium, pH readings were taken to ensure that there were no negative effects due to lowered pH.
# [3] = test system: wildtype S. mutans biofilms; assay: Treatment of in vitro wildtype biofilm with ampicillin; format: cell-based, Streptococcus mutans; conditions: 16 hours
# Description: as §1
# Biofilms were grown overnight using previously described conditions. For treatment with SDS, cover-slips were removed from overnight incubation and rinsed briefly. These were then placed into a fresh culture dish and 2mL of sterile, 1% (w/v) SDS solution was added to each dish. The biofilms were placed on a standard shaker set at 150 rpm for one hour at room temperature. Next, supernatant samples were checked at 40× magnification to confirm that cells were fully individualized and not connected in chains. These samples were measured for their OD600 values. For treatment with antibiotics, biofilms were again grown under standard conditions overnight. […]
# as §2
smiles,measurement,setting,value
CCCCCCCCCCCCOS(=O)(=O)[O-].[Na+] [SDS],"OD600 of supernatant, wildtype relative to luxS mutant",[1],about 6 fold
OC[C@H]1O[C@@](CO)(O[C@H]2O[C@H](CO)[C@@H](O)[C@H](O)[C@H]2O)[C@@H](O)[C@@H]1O [sucrose],luminescence (AI-2 induction) relative to background,[2],potent reduction in luminescence to below background values
CC1(C)S[C@@H]2[C@H](NC(=O)[C@H](N)c3ccccc3)C(=O)N2[C@H]1C(=O)O [ampicillin],cells surviving ampicillin treatment,[3]; 50 μg/mL ampicillin,< 1%
same,cells surviving ampicillin treatment,[3]; 500 μg/mL ampicillin,none survived
